These results are taken from paper PMC9102668, “Highly Cytotoxic Osmium(II) Compounds and Their Ruthenium(II) Analogues Targeting Ovarian Carcinoma Cell Lines and Evading Cisplatin Resistance Mechanisms” (International Journal of Molecular Sciences, 2022).

Data set [1] is described as follows: Stability determination via 1H NMR spectroscopy. The format is physicochemical. As to the method: To investigate the behaviour of the ruthenium(II) complexes Ru1, Ru3, and Ru8 in solution, we analysed kinetic measurements via ^1H NMR spectroscopy (every 1 h, one spectra). NMR signals and behaviour of the ruthenium and osmium compounds is similar, but osmium(II) compounds show a slower ligand exchange mechanism and a higher stability in general. […] The same measurements were done also with dmso at room temperature. Similar changes in the spectra occur at room temperature and new species are detectable (exemplified for Ru1 in the Supplementary Figure S3). However, slower speciation processes in comparison to 37 °C measurements occur, which is exemplarily represented by the disappearance of the double-doublets of the cymene ligand after 29 h (rt, Supplementary Figure S3) vs. 5 h (37 °C, Supplementary Figure S2). As reported earlier, dmso molecules are able to bind to the ruthenium(II) center by losing the cymene ligand and changing the structure to an octahedral metal(II) coordination sphere. Thus, an explanation for the new species can be the binding of dmso molecules to the ruthenium(II) center after loss of the cymene ligand representing the new species in the ^1H NMR spectra. To support this hypothesis, the ruthenium(II) complexes were measured under same conditions (rt, 72 h) in CD2Cl2, and it was shown that the compounds are stable under these conditions in the other solvent (see Supplementary Figure S4).
NMR spectra were measured via NMR spectroscopy on Bruker Avance 400 MHz. Substances were solved in dmso-d6 or CD2Cl2 and measured directly at 37 °C or room temperature for 72 h. NS = 128 scans, t = 709 s/2891 s break, 72 measurements.

For data set [2], the system named is A549. The experiment in a line: MTT assay (CellTiter96), cytotoxic activity. The class given is cell-based. Conditions: lung carcinoma cell line, 48 h incubation. As to the method:
(§1) The biological behaviour of all substances was characterized by their cytotoxic activity against a panel of cell lines enabling an understanding of the structure-activity relationship. Cytotoxic activity was determined on ovarian carcinoma cell lines SKOV3 and A2780 as well as their Cisplatin resistant analogues (SKOV3cis and A2780cis) and the lung carcinoma cell line A549. Due to a low solubility in water, dmso is used as a solvent for the preparation of a dilution series in cell culture experiments. The toxic influence of dmso was determined earlier and experiments were carried out with 0.5% dmso in cell culture media and this concentration was used as reference sample in each MTT assay (details: Section 3). […] Resistance factors (RF) were determined for all substances (for IC50 values and RF of β-Hydroxydithiocinnamic acid esters L1–L18, see Tables S2 and S3, Supplementary part). All investigated ruthenium(II) compounds show lower RF values than Cisplatin on ovarian carcinoma cell lines, ranging from 0.2 to 1.5 (Table 3). Whereas the IC50 values on the non-resistant cell lines are in most cases higher than the IC50 of the reference substance, no increase of IC50 values is observed for the resistant cell lines. Contrary, eight ruthenium complexes show lower IC50 values on SKOV3cis than Cisplatin and four compounds on A2780cis. Thus, it can be concluded that these compounds are able to bypass the Cisplatin resistance mechanism in these cell lines pointing to a different mechanism of action.
(§2) Ovarian cancer cell lines were cultured under standard conditions (5% CO2, 37 °C, 90% humidity) in RPMI medium supplemented with 10% FCS, 100 U/mL penicillin and 100 µg/mL streptomycin (Life Technologies, Dreieich, Germany). Cisplatin (Sigma, Taufkirchen, Germany) was freshly dissolved at 1 mg/mL in 0.9% NaCl solution and diluted appropriately. New ruthenium(II) complexes and ligands were dissolved in dmso. Platinum-resistant A2780 and SKOV3 cells were established by repeated rounds of 3-day incubations with increasing amounts of Cisplatin starting with 0.1 µM. The concentration was doubled after 3 incubations, interrupted by recovery phases with normal medium. […] Determinations of IC50 values were carried out using the CellTiter96 non-radioactive proliferation assay (MTT assay, Promega, Mannheim, Germany). After seeding 5000 cells per well in a 96-well plate, cells were allowed to attach for 24 h and were incubated for 48 h with different concentrations of the substances ranging from 0 to 500 µM for Ruthenium and 0 to 1000 µM for ligand tests (0, 1, 10, 50, 100, 500, 1000 µm), for Cisplatin from 0 to 100 µM (0.1, 1, 5, 10, 50, 100 µM). Each measurement was done in triplicate and repeated 3 times. The proportion of viable cells was quantified by the MTT assay and after background subtraction relative values compared to the mean of medium controls were calculated. Non-linear regression analyses applying the Hill slope were run in GraphPad 5.0 software.
On the technique in general: Tetrazolium assays rely on reduction of a dye to a coloured formazan, in cell work by metabolically active cells.

The subject of data set [3] is SKOV3cis. The experiment in a line: MTT assay (CellTiter96), cytotoxic activity. The format is cell-based. The following applies: for IC50: Cisplatin resistant SKOV3, MTT assay, 48 h incubation; for RF SKOV3 (resistance factor): SKOV3cis vs SKOV3. As to the method:
as §1, §2

The subject of data set [4] is A2780cis. The experiment in a line: MTT assay (CellTiter96), cytotoxic activity. The format is cell-based. The following applies: for RF A2780 (resistance factor): A2780cis vs A2780; for IC50: Cisplatin resistant A2780, MTT assay, 48 h incubation. As to the method:
as §1, §2

Data set [5] relates to A2780. The experiment in a line: MTT assay (CellTiter96), cytotoxic activity. The following applies: 48 h incubation. The format is cell-based. As to the method: as §1, §2
Data set [6] relates to SKOV3. The experiment in a line: MTT assay (CellTiter96), cytotoxic activity. Conditions: 48 h incubation. The class given is cell-based. Here is the method: as §1, §2
Data set [7] concerns Keratinocytes. The experiment in a line: IC50 on non-cancerous cell cultures. The class given is cell-based. The following applies: normal primary short-term cell culture.
In data set [8] the test system is Fibroblasts. The experiment in a line: IC50 on non-cancerous cell cultures. The format is cell-based. The following applies: normal primary short-term cell culture.
Data set [9] has as its system MCF10A. The experiment in a line: IC50 on non-cancerous cell cultures. The class given is cell-based. The following applies: non-cancerous breast epithelial cell line.
In data set [10] the test system is Cisplatin resistant cell lines. The experiment in a line: Mean IC50 (MTT assay) on Cisplatin resistant cell lines. The format is cell-based. Here is the method:
Thus, it can be concluded that the biological activity is mediated by a longer chain (butoxy) at the meta-position, whereas the ortho- and para-positions are more suitable with a shorter chain (ethoxy). To have a further look at the influence of the different ligand systems and substitution patterns, all β-Hydroxydithiocinnamic acid alkyl esters were tested under same conditions as their derived ruthenium(II) complexes (Figure 5B, Supplementary Table S3). […] All ligands are less cytotoxic than Cisplatin itself and therefore the metal(II) center is necessary for the high cytotoxic activity, what is in clear contrast to the literature for O,S-chelating ruthenium(II) or osmium(II) compounds with thiomaltol ligand [48, 71] but confirmed for Ru(II)/Os(II) compounds with N,N-bidentate glycosyl heterocyclic ligands. This is exemplarily shown by the comparison of mean IC50 values for Cisplatin, L14, and Ru14 (Supplementary Figure S8).
as §2

In data set [11] the test system is A2780 and SKOV3 cells and the resistant subcultures. The experiment in a line: Cell cycle distribution, PI staining and FACS. The class given is cell-based. Conditions: 48 h treatment, 24 h recovery. Here is the method: The reduced viability under treatment, as measured by the MTT assay, can be a result of cell cycle arrest and/or increased cell death. To further evaluate the anticancer properties of the ruthenium(II) complexes we measured cell cycle distribution and cell death rates after treatment with Ru3 or Ru14. After seeding and attaching, the cells were treated for 48 h with different concentrations of substances. For cell cycle distribution measurements, a recovery phase of 24 h was added after treatment, and cells were fixed and stained with PI for the DNA content. Arresting of cells in specific cell cycle phases gives them time to resolve the DNA damage (G1 arrest) or is an initial step to apoptosis if DNA damage is too severe (G2/M arrest).
(§3) To examine cell cycle distribution and cell death rates, 30,000 cells were seeded in 12 well plates. After attaching for 24 h cells were treated with Cisplatin, Ru3 and Ru14 for 48 h at various concentrations for cell cycle and cell death analyses. For cell death analysis, immediately after treatment cells were stained with Propidium Iodid (PI) (1 µg/mL) on ice and the number of dead cells was measured using BD Canto II. For cell cycle distribution, cells recovered for 24 h after treatment. Afterwards, cells were fixed in ice-cold, 50% EtOH for 24 h at −20 °C. For DNA staining, fixed cells were incubated in PBS with 0.05% Triton-X, 0.1 µg/mL RNaseA and 50 µg/mL PI for 1 h at 4 °C in dark. DNA content was measured using BD Canto II.

The subject of data set [12] is A2780 cells. The experiment in a line: Cell death rate, PI staining of live cells (FACS). Conditions: A2780 and SKOV3 cells, 20 µM and 30 µM, 48 h. The class given is cell-based. Here is the method:
For cell death rate analysis, live cells were stained with PI immediately after 48 h treatment. […] Furthermore, resistant cells show much lower Cisplatin-induced cell death rates (Figure 7). […] In A2780 cells, both compounds trigger similar cell death rates in parental and Cisplatin-resistant cells. Cisplatin-resistant SKOV3 are much more sensitive to both ruthenium(II) complexes than the parental counterpart, with a median of 3.3-fold higher sensitivity.
as §3

In data set [13] the test system is histone γH2AX-foci. The experiment in a line: γH2AX foci analysis (DNA damage). The format is cell-based. The following applies: IC50 concentration, 24h incubation. From the text:
ROS production may also lead to endoplasmatic reticulum stress-induced apoptosis. In general, many ruthenium(II) complexes with different ligands induce intracellular ROS [94, 95, 96, 97, 98, 99]. Moreover, the cytotoxic activity of Os(II) compounds can be inhibited by vitamin E co-treatment pointing to the contribution of ROS [88]. In addition to mitochondrial dysfunction, Ru(II) complexes may affect glycolysis or topoisomerase I/II, thus inducing necroptosis. Ru(II) compounds with modified pyrithione ligands were recently described to overcome platinum resistance in ovarian cancer cells by inducing cytostatic G1 arrest, TrxR inhibition, and cell membrane damage. […] Future studies may identify the specific target proteins enabling molecular docking studies and specific refinement of the organo-metal compound structure. Altogether, presented compounds may use some of these alternative modes of action as well, as we see efficient cell death but no cell cycle arrest induction by Ru3/Ru14. Furthermore, the ruthenium(II) core atom might be responsible for this effect because of the lack of anticancer behaviour of the ligand L14 (Supplementary Figure S8). To further confirm that Ru compounds use another mechanism of action, DNA damage analyses were conducted for Ru3 and Ru14 (Figure 8). […]

Some results are limits rather than exact numbers.

In general, IC50 refers to the concentration that gives 50% inhibition. A low value points to higher potency. “[(n^6-p-cymene)Ru(1-phenyl-3-(methylthio)-3-thioxo-prop-1-en-1-olate-O,S)Cl] [Ru1]”: the “disappearance of the double-doublets of the cymene ligand” value in [1] (dmso, rt) came out at 29 h; in data set [1] (dmso-d6, 37 °C), 5 h. Further, in data set [1] (dmso-d6, 37 °C), the “loss of the methine proton signal” value was 7 h. For the same molecule, the IC50 in [2] came out at 28.8 µM; in [3], 18.4 µM; in data set [4], 9.6 µM; in [5] it was 12.8 µM; in data set [6] it was 34.7 µM. In [3], the “RF SKOV3 (resistance factor)” value amounted to 0.5. Further, in data set [4], the “RF A2780 (resistance factor)” value is reported as 0.75.

Turning to “[(η^6-p-cymene)Os(1-(3-hydroxyphenyl)-3-(ethylthio)-3-thioxo-prop-1-en-1-olate-O,S)Cl] [Os3]”, the half-inhibitory concentration (IC50) in data set [7] was 84.5 µM; in [8] it was greater than 100 µM; in data set [2] it was 0.7 µM; in data set [3], 2.3 µM; in data set [4] it was 0.4 µM; in data set [5] it was 0.4 µM. For the same molecule, the IC50 in data set [6] turned out to be 1.1 µM; in [9] it was 21.3 µM. In addition, the “stability determination using NMR spectroscopy” value in data set [1] (osmium(II) compounds) is given as “no structural changes”. Also, the “RF SKOV3 (resistance factor)” value in [3] was 2.1. For the same molecule, in [4], the “RF A2780 (resistance factor)” value worked out at 1.

Turning to `CCSC(=S)C=C([O][Ru][Cl])c1ccccc1.Cc1ccc(C(C)C)cc1` [Ru2, [(η^6-p-cymene)Ru(1-phenyl-3-(ethylthio)-3-thioxo-prop-1-en-1-olate-O,S)Cl]], the 50% inhibitory concentration (IC50) stood at 12.2 µM in data set [2]; 11.1 µM in data set [3]; 4.8 µM in data set [4]; 10 µM in data set [5]; 15.7 µM in data set [6]. In [3], the “RF SKOV3 (resistance factor)” value is 0.7. Also, the “RF A2780 (resistance factor)” value in [4] is on record as 0.48. Also, the “mean IC50 value on Cisplatin resistant cell lines compared with Cisplatin” value in data set [10] was “lower”.

As to `CSC(=S)C=C([O][Ru][Cl])c1cccc(O)c1.Cc1ccc(C(C)C)cc1` [Ru3, [(η^6-p-cymene)Ru(1-(3-hydroxyphenyl)-3-(methylthio)-3-thioxo-prop-1-en-1-olate-O,S)Cl]], in [11], the “effect on cell cycle distribution” value is given as “no or only a minor effect on cell cycle distribution”. In addition, the “capacity to induce cell death in vitro” value in data set [12] is reported as “high capacity to induce cell death”. For the same molecule, the γH2AX-foci induction entry in data set [13] is “less γH2AX-foci as Cisplatin”. Also, the IC50 came out at 8 µM in data set [2]; 12.1 µM in data set [3]; 7.4 µM in data set [4]; 8.7 µM in [5]; 18.9 µM in data set [6]. Also, the “RF SKOV3 (resistance factor)” value in data set [3] stood at 0.6. The “RF A2780 (resistance factor)” value in [4] was determined as 0.9. Also, in data set [10], the “mean IC50 value on Cisplatin resistant cell lines compared with Cisplatin” value was “lower”.
